The values that follow come from US12723063B2, “GIPR-agonist compounds” (Eli Lilly and Company, priority 2019, dated 2026).

One data set has as its target T1, human GLP-1R (Homo sapiens, UniProt P43220).
T1 construct: expressed in transfected cells; crude membranes
Briefly: [125I]-GLP-1 binding, SPA with WGA beads, 0.1% bacitracin. The following applies: geometric mean, read-out: hGLP1R Ki. Summed up: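 Binding buffer was 25 mM HEPES pH 7.4 with 2.5 mM CaCl2, 1 mM MgCl2, 0.1% (w/v) bacitracin, 0.003% Tween-20 and EDTA-free protease inhibitors. Four-parameter regression gave IC50, converted to Ki (geometric mean, SEM, n independent days).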

Data set [1] can be described thus: Pharmacokinetics in male cynomolgus monkeys, single subcutaneous administration. The class given is in vivo, cynomolgus monkey. The following applies: 50 nmol/kg single SC, mean n = 2; for CL/F / Tmax / half-life: cynomolgus monkey, plasma. As for the experimental part:
The pharmacokinetics of select Examples are evaluated following a single subcutaneous administration of 50 nmol/kg to male cynomolgus monkeys. Blood samples are collected over 504 hours and resulting individual plasma concentrations are used to calculate pharmacokinetic parameters. Peptide plasma (K3 EDTA) concentrations are determined using a qualified LC/MS method that measured the intact mass of the compound. Each peptide and an analog as an internal standard are extracted from 100% cynomolgus monkey plasma using a protein precipitation method. Instruments are combined for LC/MS detection.

A further data set addresses T2, human GIPR (Homo sapiens, UniProt P48546).
T2 construct: expressed in transfected cells; crude membranes
T2 sequence (P48546 22-466): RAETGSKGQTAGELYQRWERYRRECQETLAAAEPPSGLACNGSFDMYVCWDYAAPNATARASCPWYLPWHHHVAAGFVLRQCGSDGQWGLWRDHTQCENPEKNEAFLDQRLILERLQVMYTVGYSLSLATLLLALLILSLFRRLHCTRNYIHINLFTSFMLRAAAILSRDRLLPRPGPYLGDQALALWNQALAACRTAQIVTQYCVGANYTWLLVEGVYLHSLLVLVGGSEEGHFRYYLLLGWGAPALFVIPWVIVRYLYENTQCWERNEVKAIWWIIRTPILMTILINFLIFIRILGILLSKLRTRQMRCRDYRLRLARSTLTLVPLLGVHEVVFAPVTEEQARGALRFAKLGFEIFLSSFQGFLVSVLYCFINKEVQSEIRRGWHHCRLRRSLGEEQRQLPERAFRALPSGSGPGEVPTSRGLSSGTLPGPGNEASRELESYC
Briefly: [125I]-GIP binding, SPA with WGA beads, 0.1% bacitracin. The following applies: geometric mean, read-out: hGIPR Ki. The method in brief:
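Ki values are geometric means (SEM, n independent days), derived from four-parameter nonlinear regression of IC50. Membranes came from hGIPR-expressing CHO cells.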

A further data set addresses T3, human GcgR (Homo sapiens, UniProt P47871).
T3 construct: expressed in transfected cells; crude membranes
The data set is described as follows: [125I]-Glucagon binding, SPA with WGA beads, 0.1% bacitracin. The following applies: geometric mean, read-out: hGcgR Ki. Summed up: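 SPA competition binding with WGA beads on crude membranes from HEK293 cells stably expressing hGcgR. Buffer: 25 mM HEPES pH 7.4, 2.5 mM CaCl2, 1 mM MgCl2, 0.1% bacitracin, 0.003% Tween-20; 10-point 3-fold dilutions, NSB with 1 μM Gcg.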

T3 sequence (P47871 26-477): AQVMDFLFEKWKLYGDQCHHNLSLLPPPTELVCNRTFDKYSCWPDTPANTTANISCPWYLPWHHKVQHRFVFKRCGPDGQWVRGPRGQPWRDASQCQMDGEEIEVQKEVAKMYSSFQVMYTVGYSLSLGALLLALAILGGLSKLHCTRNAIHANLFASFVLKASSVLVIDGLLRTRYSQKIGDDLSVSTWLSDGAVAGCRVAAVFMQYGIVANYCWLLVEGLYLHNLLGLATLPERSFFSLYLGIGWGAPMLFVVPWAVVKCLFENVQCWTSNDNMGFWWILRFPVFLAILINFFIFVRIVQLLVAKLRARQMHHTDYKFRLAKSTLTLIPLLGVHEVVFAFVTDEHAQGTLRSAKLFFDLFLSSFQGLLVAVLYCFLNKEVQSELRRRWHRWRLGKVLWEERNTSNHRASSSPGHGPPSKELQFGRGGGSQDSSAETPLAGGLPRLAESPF
T1 sequence (P43220 24-463): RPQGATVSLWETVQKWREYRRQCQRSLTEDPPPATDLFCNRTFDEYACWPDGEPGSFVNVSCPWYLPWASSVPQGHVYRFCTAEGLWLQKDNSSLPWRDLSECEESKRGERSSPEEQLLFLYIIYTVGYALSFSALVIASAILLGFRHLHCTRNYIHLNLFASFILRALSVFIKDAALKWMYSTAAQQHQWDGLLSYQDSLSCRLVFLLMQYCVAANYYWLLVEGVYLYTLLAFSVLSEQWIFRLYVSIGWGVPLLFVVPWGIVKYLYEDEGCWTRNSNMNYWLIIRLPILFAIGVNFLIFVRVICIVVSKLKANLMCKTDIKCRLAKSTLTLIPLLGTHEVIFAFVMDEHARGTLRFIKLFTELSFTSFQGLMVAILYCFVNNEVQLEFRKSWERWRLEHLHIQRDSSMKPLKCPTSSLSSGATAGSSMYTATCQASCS

Regarding `CC[C@H](C)[C@H](NC(=O)[C@H](Cc1ccccc1)NC(=O)[C@@H](NC(=O)CNC(=O)[C@H](CCC(=O)O)NC(=O)C(C)(C)NC(=O)[C@@H](N)Cc1ccc(O)cc1)[C@@H](C)O)C(=O)N[C@@H](CO)C(=O)N[C@@H](CC(=O)O)C(=O)N[C@@H](Cc1ccc(O)cc1)C(=O)N[C@@H](CO)C(=O)N[C@H](C(=O)N[C@@](C)(CC(C)C)C(=O)N[C@@H](CC(C)C)C(=O)N[C@@H](CC(=O)O)C(=O)N[C@@H](CCCN)C(=O)N[C@@H](CCCCNC(=O)COCCOCCNC(=O)COCCOCCNC(=O)CC[C@H](NC(=O)CCCCCCCCCCCCCCCCCCC(=O)O)C(=O)O)C(=O)N[C@@H](Cc1c[nH]cn1)C(=O)N[C@@H](CCC(N)=O)C(=O)NC(C)(C)C(=O)N[C@@H](CC(=O)O)C(=O)N[C@@H](Cc1ccccc1)C(=O)N[C@H](C(=O)N[C@@H](CCC(=O)O)C(=O)N[C@@H](Cc1ccncc1)C(=O)N[C@@H](CC(C)C)C(=O)N[C@@H](CC(C)C)C(=O)N[C@@H](CCC(=O)O)C(=O)N[C@@H](C)C(=O)NCC(=O)N1CCC[C@H]1C(=O)N[C@@H](CO)C(=O)N[C@@H](CO)C(=O)NCC(=O)N[C@@H](C)C(=O)N1CCC[C@H]1C(=O)N1CCC[C@H]1C(=O)N1CCC[C@H]1C(=O)N[C@@H](CO)C(N)=O)C(C)C)[C@@H](C)CC` [Example 4], at human GLP-1R, the Ki was determined as 423 nM. In addition, in data set [1], the AUCInf/Dose was 1387 hr*kg*nmol/L/nmol, the Cmax/Dose was determined as 8.71 kg*nmol/L/nmol, the CL/F was 17.3 mL/day/kg and the Tmax was found to be 6 h. Moreover, the half-life in data set [1] is 5.17 days. Further, the Ki at human GIPR is 0.062 nM. Besides, the Ki on human GcgR stood at 431 nM.
For `CC[C@H](C)[C@H](NC(=O)[C@H](CCCN)NC(=O)[C@H](CC(=O)O)NC(=O)[C@H](CC(C)C)NC(=O)[C@](C)(CC(C)C)NC(=O)[C@@H](NC(=O)[C@H](CO)NC(=O)[C@H](Cc1ccc(O)cc1)NC(=O)[C@H](CC(=O)O)NC(=O)[C@H](CO)NC(=O)[C@@H](NC(=O)[C@H](Cc1ccccc1)NC(=O)[C@@H](NC(=O)CNC(=O)[C@H](CCC(=O)O)NC(=O)C(C)(C)NC(=O)[C@@H](N)Cc1ccc(O)cc1)[C@@H](C)O)[C@@H](C)CC)[C@@H](C)CC)C(=O)N[C@@H](Cc1c[nH]cn1)C(=O)N[C@@H](CCC(N)=O)C(=O)NC(C)(C)C(=O)N[C@@H](CC(=O)O)C(=O)N[C@@H](Cc1ccccc1)C(=O)N[C@H](C(=O)N[C@@H](CCC(=O)O)C(=O)N[C@@H](Cc1ccc(O)cc1)C(=O)N[C@@H](CCCCNC(=O)COCCOCCNC(=O)COCCOCCNC(=O)CC[C@H](NC(=O)CCCCCCCCCCCCCCCCCCC(=O)O)C(=O)O)C(=O)N[C@@H](CC(C)C)C(=O)N[C@@H](CCC(=O)O)C(=O)NCC(=O)NCC(=O)N1CCC[C@H]1C(=O)N[C@@H](CO)C(=O)N[C@@H](CO)C(=O)NCC(=O)N[C@@H](C)C(=O)N1CCC[C@H]1C(=O)N1CCC[C@H]1C(=O)N1CCC[C@H]1C(=O)N[C@@H](CO)C(N)=O)C(C)C` [Example 6], the Ki on human GLP-1R was 571 nM. In data set [1], the AUCInf/Dose is on record as 1382 hr*kg*nmol/L/nmol, the Cmax/Dose amounted to 7.83 kg*nmol/L/nmol, the CL/F is 18.5 mL/day/kg and the time of peak concentration (Tmax) amounted to 6 h. Further, in data set [1], the half-life was 5.38 days. Further, the Ki at human GIPR was 0.104 nM. Besides, the inhibition constant (Ki) on human GcgR turned out to be 453 nM.
As to `CC[C@H](C)[C@H](NC(=O)[C@H](CO)NC(=O)[C@H](Cc1ccc(O)cc1)NC(=O)[C@H](CC(=O)O)NC(=O)[C@H](CO)NC(=O)[C@@H](NC(=O)[C@H](Cc1ccccc1)NC(=O)[C@@H](NC(=O)CNC(=O)[C@H](CCC(=O)O)NC(=O)[C@@H](C)NC(=O)[C@@H](N)Cc1ccc(O)cc1)[C@@H](C)O)[C@@H](C)CC)C(=O)N[C@@H](CC(C)C)C(=O)N[C@@H](CC(C)C)C(=O)N[C@@H](CC(=O)O)C(=O)N[C@@H](CCCCN)C(=O)N[C@@H](CCCCNC(=O)COCCOCCNC(=O)COCCOCCNC(=O)CC[C@H](NC(=O)CCCCCCCCCCCCCCCCCCC(=O)O)C(=O)O)C(=O)N[C@@H](C)C(=O)N[C@@H](CCC(N)=O)C(=O)NC(C)(C)C(=O)N[C@@H](CC(=O)O)C(=O)N[C@@H](Cc1ccccc1)C(=O)N[C@H](C(=O)N[C@@H](CC(N)=O)C(=O)N[C@@H](Cc1c[nH]c2ccccc12)C(=O)N[C@@H](CC(C)C)C(=O)N[C@@H](CC(C)C)C(=O)N[C@@H](C)C(=O)N[C@@H](CCC(N)=O)C(=O)NCC(=O)N1CCC[C@H]1C(=O)N[C@@H](CO)C(=O)N[C@@H](CO)C(=O)NCC(=O)N[C@@H](C)C(=O)N1CCC[C@H]1C(=O)N1CCC[C@H]1C(=O)N1CCC[C@H]1C(=O)N[C@@H](CO)C(N)=O)C(C)C` [Example 1], the Ki on human GLP-1R is 57.8 nM. Also, in data set [1], the AUCInf/Dose was 786 hr*kg*nmol/L/nmol, the Cmax/Dose was 7.20 kg*nmol/L/nmol, the CL/F is 30.5 mL/day/kg and the Tmax worked out at 24 h. Also, the half-life in data set [1] is 2.96 days. For the same compound, the Ki on human GIPR worked out at 0.0667 nM. The Ki at human GcgR came out at 228 nM.
As to `CC[C@H](C)[C@H](NC(=O)[C@H](CO)NC(=O)[C@H](Cc1ccc(O)cc1)NC(=O)[C@H](CC(=O)O)NC(=O)[C@H](CO)NC(=O)[C@@H](NC(=O)[C@H](Cc1ccccc1)NC(=O)[C@@H](NC(=O)CNC(=O)[C@H](CCC(=O)O)NC(=O)[C@@H](C)NC(=O)[C@@H](N)Cc1ccc(O)cc1)[C@@H](C)O)[C@@H](C)CC)C(=O)N[C@@H](CC(C)C)C(=O)N[C@@H](CC(C)C)C(=O)N[C@@H](CC(=O)O)C(=O)N[C@@H](CCCCN)C(=O)N[C@@H](CCCCNC(=O)COCCOCCNC(=O)COCCOCCNC(=O)CC[C@H](NC(=O)CCCCCCCCCCCCCCCCC(=O)O)C(=O)O)C(=O)N[C@@H](C)C(=O)N[C@@H](CCC(N)=O)C(=O)NC(C)(C)C(=O)N[C@@H](CC(=O)O)C(=O)N[C@@H](Cc1ccccc1)C(=O)N[C@H](C(=O)N[C@@H](CC(N)=O)C(=O)N[C@@H](Cc1c[nH]c2ccccc12)C(=O)N[C@@H](CC(C)C)C(=O)N[C@@H](CC(C)C)C(=O)N[C@@H](C)C(=O)N[C@@H](CCC(N)=O)C(=O)NCC(=O)N1CCC[C@H]1C(=O)N[C@@H](CO)C(=O)N[C@@H](CO)C(=O)NCC(=O)N[C@@H](C)C(=O)N1CCC[C@H]1C(=O)N1CCC[C@H]1C(=O)N1CCC[C@H]1C(=O)N[C@@H](CO)C(N)=O)C(C)C` [Example 2], the Ki on human GLP-1R came to 77.9 nM. Besides, in data set [1], the AUCInf/Dose turned out to be 624 hr*kg*nmol/L/nmol, the Cmax/Dose worked out at 6.92 kg*nmol/L/nmol, the CL/F is 38.6 mL/day/kg and the Tmax was 6 h. In data set [1], this compound had a half-life of 2.16 days. On human GIPR, the Ki stood at 0.0373 nM. Moreover, the Ki at human GcgR was found to be 379 nM.
`CC[C@H](C)[C@H](NC(=O)[C@H](CCCN)NC(=O)[C@H](CC(=O)O)NC(=O)[C@H](CC(C)C)NC(=O)[C@](C)(CC(C)C)NC(=O)[C@@H](NC(=O)[C@H](CO)NC(=O)[C@H](Cc1ccc(O)cc1)NC(=O)[C@H](CC(=O)O)NC(=O)[C@H](CO)NC(=O)[C@@H](NC(=O)[C@H](Cc1ccccc1)NC(=O)[C@@H](NC(=O)CNC(=O)[C@H](CCC(=O)O)NC(=O)C(C)(C)NC(=O)[C@@H](N)Cc1ccc(O)cc1)[C@@H](C)O)[C@@H](C)CC)[C@@H](C)CC)C(=O)N[C@@H](Cc1c[nH]cn1)C(=O)N[C@@H](CCC(N)=O)C(=O)NC(C)(C)C(=O)N[C@@H](CCC(=O)O)C(=O)N[C@@H](Cc1ccccc1)C(=O)N[C@H](C(=O)N[C@H](CCC(=O)O)C(=O)N[C@@H](Cc1ccc(O)cc1)C(=O)N[C@@H](CCCCNC(=O)COCCOCCNC(=O)COCCOCCNC(=O)CC[C@H](NC(=O)CCCCCCCCCCCCCCCCC(=O)O)C(=O)O)C(=O)N[C@@H](CC(C)C)C(=O)N[C@@H](CCC(=O)O)C(=O)NCC(=O)NCC(=O)N1CCC[C@H]1C(=O)N[C@@H](CO)C(=O)N[C@@H](CO)C(=O)NCC(=O)N[C@@H](C)C(=O)N1CCC[C@H]1C(=O)N1CCC[C@H]1C(=O)N1CCC[C@H]1C(=O)N[C@@H](CO)C(N)=O)C(C)C` [Example 7]: on human GLP-1R, the Ki is greater than 913 nM. In data set [1], the AUCInf/Dose was 1603 hr*kg*nmol/L/nmol, the Cmax/Dose is 10.1 kg*nmol/L/nmol, the apparent clearance (CL/F) was 15.1 mL/day/kg and the Tmax was determined as 9 h. The same compound showed a half-life in data set [1] of 4.54 days. The Ki at human GIPR is 0.193 nM. Further, the Ki at human GcgR was greater than 961 nM.

The Ki is the dissociation constant of the complex between target and ligand, obtained from inhibition or displacement. What is called CL/F is the apparent clearance, not corrected for the fraction that reaches the circulation. For orientation: Tmax means the time at which the peak concentration occurs. Usually half-life stands for the time in which the quantity being followed falls by half. A higher half-life goes with slow decline.
